Reference: ChEMBL document CHEMBL4425158, “Synthesis, structure-activity relationships and biological evaluation of 4,5,6,7-tetrahydropyrazolopyrazines as metabotropic glutamate receptor 5 negative allosteric modulators” (Bioorg Med Chem Lett, 2016)
The source made the active and inactive calls. No cut-off for these calls is given here.

How the values were obtained:
[1] = molecular target: Metabotropic glutamate receptor 5 (Homo sapiens, UniProt P41594); experiment: Negative allosteric modulation of human recombinant mGluR5 expressed in HEK293 cells assessed as L-glutamate-induced intracellular calcium mobilization incubated for 20 mins before L-glutamate addition; format: functional, cell-based
Sequence of Metabotropic glutamate receptor 5 (P41594 whole entry): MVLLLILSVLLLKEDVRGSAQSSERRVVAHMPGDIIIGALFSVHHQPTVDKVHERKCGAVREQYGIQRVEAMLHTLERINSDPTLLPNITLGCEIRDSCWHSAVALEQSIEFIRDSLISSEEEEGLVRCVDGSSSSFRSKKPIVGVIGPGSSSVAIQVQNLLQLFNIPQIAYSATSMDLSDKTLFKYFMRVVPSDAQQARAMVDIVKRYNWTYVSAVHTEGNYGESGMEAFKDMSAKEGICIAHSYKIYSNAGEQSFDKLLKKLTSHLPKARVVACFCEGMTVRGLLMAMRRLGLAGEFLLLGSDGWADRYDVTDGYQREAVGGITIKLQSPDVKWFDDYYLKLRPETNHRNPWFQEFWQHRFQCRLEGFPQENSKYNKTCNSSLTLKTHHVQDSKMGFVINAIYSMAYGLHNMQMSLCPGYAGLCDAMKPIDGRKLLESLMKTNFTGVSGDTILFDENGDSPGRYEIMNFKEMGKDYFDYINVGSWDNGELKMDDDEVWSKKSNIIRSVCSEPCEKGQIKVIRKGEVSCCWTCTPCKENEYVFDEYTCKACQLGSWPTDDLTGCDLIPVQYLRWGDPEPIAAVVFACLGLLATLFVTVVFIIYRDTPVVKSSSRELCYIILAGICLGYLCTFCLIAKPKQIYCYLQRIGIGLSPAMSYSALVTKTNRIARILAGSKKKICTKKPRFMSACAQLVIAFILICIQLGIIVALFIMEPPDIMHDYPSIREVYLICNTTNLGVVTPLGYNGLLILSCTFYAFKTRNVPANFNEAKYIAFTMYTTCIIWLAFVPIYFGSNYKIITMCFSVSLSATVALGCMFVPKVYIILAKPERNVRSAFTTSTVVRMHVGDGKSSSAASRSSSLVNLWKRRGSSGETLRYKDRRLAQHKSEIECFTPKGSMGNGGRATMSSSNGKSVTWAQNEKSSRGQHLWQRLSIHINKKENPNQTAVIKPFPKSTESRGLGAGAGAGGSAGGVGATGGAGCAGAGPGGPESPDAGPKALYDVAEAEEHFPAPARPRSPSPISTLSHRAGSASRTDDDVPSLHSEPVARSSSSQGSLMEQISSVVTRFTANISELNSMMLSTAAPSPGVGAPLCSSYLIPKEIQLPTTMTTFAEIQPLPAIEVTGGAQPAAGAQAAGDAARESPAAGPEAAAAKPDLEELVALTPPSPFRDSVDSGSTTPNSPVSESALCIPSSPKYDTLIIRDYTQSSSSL

Mus musculus = experiment: Antidepressant activity in CD1(ICR) mouse assessed as decrease in immobility time at 60 mg/kg, po after 1 hr by tail suspension test; format: functional, organism-based

## O=C(c1cc(Cl)cc(Cl)c1)N1CCn2nc(-c3ccccn3)cc2C1
[1]
  IC50: 0.27 µM

## O=C(c1cccc(Cl)c1)N1CCn2nc(-c3ccc(F)cn3)cc2C1
[1]
  IC50: 0.15 µM

## O=C(c1ccccc1Cl)N1CCn2nc(-c3ccccn3)cc2C1
[1]
  IC50: 2.48 µM

## COc1cccc(C(=O)N2CCn3nc(-c4ccc(F)cn4)cc3C2)c1
[1]
  IC50: 0.482 µM

## O=C(c1cccc(C(F)(F)F)c1)N1CCn2nc(-c3ccc(F)cn3)cc2C1
[1]
  IC50: 0.383 µM

## CN(C)CCCN1c2ccccc2CCc2ccccc21
Mus musculus
  Activity: Active

## Cc1ccc(-c2cc3n(n2)CCN(C(=O)c2ccccc2)C3)nc1
[1]
  IC50: 0.244 µM

## O=C(c1ccccc1)N1CCn2nc(-c3ccncc3)cc2C1
[1]
  IC50: 1.29 µM

## O=C(c1ccc(Cl)cc1)N1CCn2nc(-c3ccccn3)cc2C1
[1]
  IC50: 9.47 µM

## O=C(c1cccc(Cl)c1)N1CCn2nc(-c3ccccn3)cc2C1
[1]
  IC50: 0.176 µM

## Cc1cccnc1-c1cc2n(n1)CCN(C(=O)c1ccccc1)C2
[1]
  IC50: > 10 µM

## O=C(c1ccccc1)N1CCn2nc(-c3ccc(F)cn3)cc2C1
[1]
  IC50: 0.164 µM
